Reference: patent publication US20170095467A1, “ENCAPSULATION OF ISOQUINOLINE ALKALOIDS” (Rhizofeed, LLC, priority 2015, published 2017)

Columns and labels:
[1] = Encapsulate degradation by heat (oven / pelletization-like conditions); format: physicochemical; conditions: 24 h
Description: (§1) The optimized encapsulation method disclosed herein was employed to produce alkaloid loaded inulin beads. These beads were subjected to both heat and light to determine the protective properties conferred by the microencapsulation process.
To determine the protection the microencapsulation process provides against heat, 1 g of inulin beads was placed in a Fischer Scientific model 605G Isotemp Oven for 24 hours at 96° C. A comparative example of sanguinarine standard that was not encapsulated was also placed in the oven.
A second study was also performed to understand the effect pelletization could have on the microcapsules. In the second study, 1 g of inulin beads was placed in a loosely covered beaker and subjected to 121° C. heat and 16 psi conditions for 20 minutes. These values are much higher in magnitude and duration than will be endured in the pelletization process for animal feed. As depicted in Table 10, the microcapsules decreased degradation by a factor of 1.62.

[2] = Encapsulate degradation by UV light; format: physicochemical
Description: as §1
To determine the light protection provided by the microencapsulation process, 1 g of inulin beads was exposed to a UV source (115V Arthur H. Thomas Co. Lamp).

[3] = Photosensitivity of sanguinarine and chelerythrine in crude rhizome extract under short-wave UV light (HPLC); format: physicochemical
Description: 2 mL of each sample was then collected. All dilutions were filtered through 0.22 um syringe filter (Restek) and were stored in a dark environment held at −4° C. Mobile phases were prepared using 40% acetonitrile, 59% distilled water, and 1% acetic acid. The flow rate was 1.0000 mL/minute, and a pressure of approximately 2161.06 psi was maintained. UV visible spectroscopy was used to determine the optimum wavelength of detection, and detection was carried out at 330 nm. Preliminary studies determined that isoquinoline alkaloids are […] under UV light. In a purified state, it has been established that Sanguinarine undergoes photochemical conversion to oxysanguinarine. […] As depicted in Table 7 and FIG. 5, exposure to light or UV radiation over any period of time has a detrimental effect on the encapsulation yield. According to certain embodiments, exposure to light and UV radiation can be minimized by storing the alkaloids in dark conditions until the encapsulation process is complete or the finished product is used.

rats = conditions: rat, in vivo; cited from earlier work
[4] = Heat degradation of alkaloids in crude extract / extraction with heat; format: physicochemical
Description: Two preliminary studies involving heat were conducted. In one study, the raw bloodroot powder was placed on a heating element for 24 hours while the alkaloid was extracted. […] In a second study, a crude extract of alkaloids was placed on a heating element at 67° C. to test for degradation.

[5] = Crude Extract Exposed to UV Light (24 Hours)
[6] = Crude Extract Exposed to UV Light (48 Hours)
[7] = Crude Extract Exposed to UV Light (72 Hours)
[8] = Crude Extract Exposed to UV Light (144 Hours)
[9] = Standard Extraction (No Heat or Light Exposure)
[10] = Crude Extract Exposed to Heat (24 Hours)

| SMILES | Percent Degradation ([1]; 96° C.) | Post-Exposure Alkaloid concentration ([1]; 96° C.) | Pre-exposure Alkaloid concentration ([1]; 96° C.) | Percent Degradation ([1]; 121° C., 16 psi, Sang. Only) | Post-Exposure Alkaloid concentration ([1]; 121° C., 16 psi, Sang. Only) | Pre-exposure Alkaloid concentration ([1]; 121° C., 16 psi, Sang. Only) | Percent Degradation [2] | Post-Exposure Alkaloid conc. [2] | Pre-exposure Alkaloid conc. [2] | Percentage of alkaloid in Extract [3, 5] | Percentage of alkaloid in Extract [3, 6] | Percentage of alkaloid in Extract [3, 7] | Percentage of alkaloid in Extract [3, 8] | Percentage of alkaloid in Extract [3, 9] | LD50 (rats) | Percentage of alkaloid in Extract [4, 10] | Percentage of alkaloid in Extract ([4]; Extracted with Heat (24 Hours)) | Percentage of alkaloid in Extract [4, 9] |
| --- | --- | --- | --- | --- | --- | --- | --- | --- | --- | --- | --- | --- | --- | --- | --- | --- | --- | --- |
| C[n+]1cc2c3c(ccc2c2ccc4cc5c(cc4c21)OCO5)OCO3 [Standard, sanguinarine chloride] | 25.40% | 0.229 mg/mL | 0.307 mg/mL | 63.30% | .07306 (Sang mg/mL | .2002 (Sang. mg/mL | 49.80% | 0.154 mg/mL | 0.307 mg/mL |  |  |  |  |  |  |  |  |  |
| C[n+]1cc2c3c(ccc2c2ccc4cc5c(cc4c21)OCO5)OCO3 [Sanguinarine, sanguinarine] |  |  |  |  |  |  |  |  |  | 2.61% | 2.41% | 2.35% | 1.26% | 5.21% | 1658 mg/kg | 4.28% | 3.41% | 5.21% |
| COc1ccc2c(c[n+](C)c3c4cc5c(cc4ccc23)OCO5)c1OC [Chelerythrine, chelerythrine] |  |  |  |  |  |  |  |  |  | 1.50% | 1.46% | 1.45% | 1.30% | 2.95% |  | 1.81% | 2.43% | 2.95% |
